Laboratory results taken from paper PMC7918733, “Biological Profiling of Semisynthetic C19-Functionalized Ferruginol and Sugiol Analogues” (Antibiotics, 2021).
Where two headings read alike, the source gives them in different places.

How the values were obtained:
[1] = test system: L. infantum promastigotes; parameters: method as in PMID 30840453; details: C18-congeners, read-out: L. infantum IC50 ± SD; cited from earlier work
[2] = test system: L. donovani promastigotes; details: C18-congeners, read-out: L. donovani IC50 ± SD; cited from earlier work
[3] = test system: L. amazonensis promastigotes; parameters: method as in PMID 30840453; details: C18-congeners, read-out: L. amazonensis IC50 ± SD; cited from earlier work
[4] = test system: L. guyanensis promastigotes; parameters: method as in PMID 30840453; details: C18-congeners, read-out: L. guyanensis IC50 ± SD; cited from earlier work
[5] = test system: L. infantum amastigotes; parameters: method as in PMID 30840453; details: C18-congener, read-out: L. infantum IC50 ± SD; cited from earlier work
[6] = test system: L. amazonensis amastigotes; parameters: method as in PMID 30840453; details: C18-congener, read-out: L. amazonensis IC50 ± SD; cited from earlier work
[7] = test system: A549 (Lung); details: C18-congeners; cited from earlier work
[8] = test system: HBL-100 (Breast); details: C18-congeners; cited from earlier work
[9] = test system: HeLa (Cervix); details: C18-congeners; cited from earlier work
[10] = test system: SW1573 (Lung); details: C18-congeners; cited from earlier work
[11] = test system: T-47D (Breast); details: C18-congeners; cited from earlier work
[12] = test system: WiDr (Colon); details: C18-congeners; cited from earlier work
[13] = test system: Macrophages J774; details: read-out: Macrophages J774 CC50; C18-congeners; cited from earlier work
[14] = biological target: T1, GABAA receptor subtype (α1β2γ2S) (Homo sapiens, UniProt P14867+P18507+P47870); parameters: expressed in transfected cells; host or cells: Xenopus laevis oocytes; details: C18-congeners, cited from earlier work
T1 sequence (P14867 28-456): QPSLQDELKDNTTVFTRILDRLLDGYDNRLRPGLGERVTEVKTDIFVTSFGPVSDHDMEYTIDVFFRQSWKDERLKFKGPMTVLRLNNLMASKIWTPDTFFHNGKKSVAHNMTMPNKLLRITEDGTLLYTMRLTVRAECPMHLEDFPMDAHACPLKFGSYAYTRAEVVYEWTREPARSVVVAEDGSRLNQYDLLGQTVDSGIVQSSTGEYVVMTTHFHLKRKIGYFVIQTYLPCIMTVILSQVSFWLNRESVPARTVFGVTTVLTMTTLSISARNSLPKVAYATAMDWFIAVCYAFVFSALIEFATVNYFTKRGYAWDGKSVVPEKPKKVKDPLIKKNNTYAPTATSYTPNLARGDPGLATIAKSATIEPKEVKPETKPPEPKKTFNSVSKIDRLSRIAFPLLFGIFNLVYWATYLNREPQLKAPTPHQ
T1 sequence (P47870 26-512): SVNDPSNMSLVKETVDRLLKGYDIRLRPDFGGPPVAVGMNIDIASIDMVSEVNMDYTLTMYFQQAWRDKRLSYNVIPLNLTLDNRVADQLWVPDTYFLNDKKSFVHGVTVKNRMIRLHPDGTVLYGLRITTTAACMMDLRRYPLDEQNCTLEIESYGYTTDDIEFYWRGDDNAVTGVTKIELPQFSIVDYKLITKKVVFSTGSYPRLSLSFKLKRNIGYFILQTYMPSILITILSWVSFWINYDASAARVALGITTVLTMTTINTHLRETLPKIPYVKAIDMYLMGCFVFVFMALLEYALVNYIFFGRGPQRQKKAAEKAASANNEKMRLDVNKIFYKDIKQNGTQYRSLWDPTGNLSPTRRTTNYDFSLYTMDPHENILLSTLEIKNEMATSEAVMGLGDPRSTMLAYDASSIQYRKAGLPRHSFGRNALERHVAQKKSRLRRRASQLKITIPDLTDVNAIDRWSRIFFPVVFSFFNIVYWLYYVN
T1 sequence (P18507 40-467 isoform P18507-1 limits assumed): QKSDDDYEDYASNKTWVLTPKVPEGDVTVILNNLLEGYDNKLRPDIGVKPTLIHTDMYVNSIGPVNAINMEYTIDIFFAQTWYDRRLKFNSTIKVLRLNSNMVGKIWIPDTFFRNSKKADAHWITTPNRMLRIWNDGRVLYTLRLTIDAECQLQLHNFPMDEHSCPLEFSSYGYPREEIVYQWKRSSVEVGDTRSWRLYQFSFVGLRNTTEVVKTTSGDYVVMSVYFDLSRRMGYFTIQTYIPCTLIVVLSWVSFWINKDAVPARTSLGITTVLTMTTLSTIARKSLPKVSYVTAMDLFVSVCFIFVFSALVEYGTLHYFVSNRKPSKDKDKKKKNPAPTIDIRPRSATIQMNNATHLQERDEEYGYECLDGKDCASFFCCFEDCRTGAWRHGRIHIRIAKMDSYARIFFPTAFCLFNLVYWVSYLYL

[15] = test system: L. infantum amastigotes; assay: Intracellular amastigote assay (fluorometric test); format: cell-based; details: Leishmania infantum, read-out: L. infantum IC50 ± SD
[16] = test system: L. amazonensis amastigotes; assay: Intracellular amastigote assay (fluorometric test); format: cell-based; details: Leishmania amazonensis, read-out: L. amazonensis IC50 ± SD
[17] = test system: P. falciparum 3D7 strain; assay: Antiplasmodial DNA stain-based growth assay; format: cell-based; details: Plasmodium falciparum, 3D7; chloroquine-sensitive strain; 72 h incubation; read-out: P. falciparum 3D7 EC50
Method: (§1) Assays were performed by using previously described DNA stain-based assay and methods, including cytotoxicity assays.

[18] = test system: P. falciparum K1 strain; assay: Antiplasmodial DNA stain-based growth assay; format: cell-based; details: Plasmodium falciparum, K1; chloroquine-resistant strain; 72 h incubation; read-out: P. falciparum K1 EC50
Method: as §1

[19] = test system: BJ; assay: Cytotoxicity on mammalian cell lines; format: cell-based; details: Homo sapiens, read-out: BJ EC50
Method: as §1

[20] = test system: HEK293; assay: Cytotoxicity on mammalian cell lines; format: cell-based; details: Homo sapiens, HEK293; read-out: HEK293 EC50
Method: as §1

[21] = test system: HepG2; assay: Cytotoxicity on mammalian cell lines; format: cell-based; details: Homo sapiens, HepG2; read-out: HepG2 EC50
Method: as §1

[22] = test system: RAJI; assay: Cytotoxicity on mammalian cell lines; format: cell-based; details: Homo sapiens, read-out: RAJI EC50
Method: as §1

[23] = test system: A549 (Lung); assay: Antiproliferative SRB assay; format: cell-based, human; details: Homo sapiens, A549, mean ± SD of at least two experiments
Method: (§2) Cells, cultures and the activity test of abietane analogs followed reported methods. The SRB assay was performed as previously described, and the antiproliferative activity was given as GI50 values, which were calculated according to NCI formulas.

[24] = test system: SW1573 (Lung); assay: Antiproliferative SRB assay; format: cell-based, human; details: Homo sapiens, SW1573, mean ± SD of at least two experiments
Method: as §2

[25] = test system: WiDr (Colon); assay: Antiproliferative SRB assay; format: cell-based, human; details: Homo sapiens, WiDr, mean ± SD of at least two experiments
Method: as §2

[26] = test system: HBL-100 (Breast); assay: Antiproliferative SRB assay; format: cell-based; details: Homo sapiens, mean ± SD of at least two experiments
Method: as §2

[27] = test system: HeLa (Cervix); assay: Antiproliferative SRB assay; format: cell-based; details: Homo sapiens, mean ± SD of at least two experiments
Method: as §2

[28] = test system: T-47D (Breast); assay: Antiproliferative SRB assay; format: cell-based; details: Homo sapiens, T47D, mean ± SD of at least two experiments
Method: as §2

[29] = Cytotoxicity assay on J774 macrophages; details: mouse, Macrophages J774 CC50, 50% reduction of cell viability
Method: (§3) The compounds were additionally studied in a panel of mammalian cell lines to determine cytotoxicity.
(§4) The parasites, culture procedure and the activity of functionalized abietane analogs on Leishmania promastigotes were performed according to the method previously reported by us [28], while the intracellular amastigote assay was performed on L. amazonensis and L. infantum according to the fluorometric test [29]. The J774 cell culture and the cytotoxicity assay was carried out according to our previously described method [30].

[30] = test system: L. infantum promastigotes; assay: Antileishmanial in vitro promastigote assay; details: Leishmania infantum, read-out: L. infantum IC50 ± SD
Method: as §3, §4

[31] = test system: L. donovani promastigotes; assay: Antileishmanial in vitro promastigote assay; details: Leishmania donovani, read-out: L. donovani IC50 ± SD
Method: as §3, §4

[32] = test system: L. amazonensis promastigotes; assay: Antileishmanial in vitro promastigote assay; details: Leishmania amazonensis, read-out: L. amazonensis IC50 ± SD
Method: as §3, §4

[33] = test system: L. guyanensis promastigotes; assay: Antileishmanial in vitro promastigote assay; details: Leishmania guyanensis, read-out: L. guyanensis IC50 ± SD
Method: as §3, §4

[34] = biological target: T1, GABAA receptor subtype (α1β2γ2S); assay: Two-microelectrode voltage-clamp in Xenopus laevis oocytes; details: for activation at 10 µM: read-out: IGABA Potentiation of 10 µM (%); for activation at 100 µM: read-out: IGABA Potentiation of 100 µM (%)
Method: All molecules were tested at concentrations of 10, 100 μM and compared with dehydroabietic acid (DHA) (3) as a reference [16].

[35] = in vitro; details: mouse, Macrophages J774 CC50
Method: as §3, §4

[36] = test system: Macrophages J774; details: mouse
Method: as §3, §4

[37] = test system: Leishmania promastigotes (L. donovani, L. infantum, L. guyanensis, L. amazonensis); assay: Antipromastigote activity over the tested Leishmania spp.; details: read-out: antipromastigote activity IC50 values (range over species)
Method: The parasites, culture procedure and the activity of functionalized abietane analogs on Leishmania promastigotes were performed according to the method previously reported by us [28], while the intracellular amastigote assay was performed on L. amazonensis and L. infantum according to the fluorometric test [29].

[38] = test system: human solid tumor cell lines HBL-100, A549, HeLa, T-47D, SW1573, WiDr; assay: Antiproliferative SRB assay, panel of six cell lines; format: cell-based; details: over the six solid tumor cell lines, read-out: GI50 (range over the cell lines)
Method: as §2

[39] = test system: A549 cell line; parameters: method as in doi:10.1016/j.phytol.2013.04.003; details: MTT method; cited from earlier work

| Compound | IC50 [15] | IC50 [16] | EC50 [17] | EC50 [18] | EC50 [19] | EC50 [20] | EC50 [21] | EC50 [22] | GI50 [23] | GI50 [24] | GI50 [25] | GI50 [26] | GI50 [27] | GI50 [28] | CC50 [29] | IC50 [30] | IC50 [31] | IC50 [32] | activation at 10 µM [34] | activation at 100 µM [34] | also measured |
| --- | --- | --- | --- | --- | --- | --- | --- | --- | --- | --- | --- | --- | --- | --- | --- | --- | --- | --- | --- | --- | --- |
| COC(=O)[C@]1(C)CCC[C@]2(C)c3cc(C(C)=O)c(C(C)C)cc3CC[C@@H]12 [Compound 9b] |  |  |  |  |  |  |  |  |  |  |  |  |  |  |  |  |  |  |  |  | IC50 [1]: 2.5 ± 0.6 µM; IC50 [2]: 14.8 ± 0.9 µM; IC50 [3]: 11.6 ± 0.6 µM; IC50 [4]: 14.2 ± 0.4 µM; IC50 [5]: 37.2 ± 2.4 µM; IC50 [6]: 31.4 ± 6.2 µM; GI50 [7]: 18 ± 2.3 µM; GI50 [8]: 15 ± 1.2 µM; GI50 [9]: 11 ± 1 µM; GI50 [10]: 11 ± 4.6 µM; GI50 [11]: 10 ± 1.5 µM; GI50 [12]: 17 ± 2.4 µM; CC50 [13]: 130 ± 8.9 µM; IGABA Potentiation of 10 µM (%) ([14]; 10 µM): 2.7 ± 0.9%; IGABA Potentiation of 100 µM (%) ([14]; 100 µM): −2.9 ± 5.1% |
| COC(=O)[C@@]1(C)CCC[C@]2(C)c3cc(C(C)=O)c(C(C)C)cc3CC[C@@H]12 [Compound 9] | 22.7 ± 5.9 µM | 30.3 ± 1.2 µM | 12.8 µM | 12.6 µM | > 25 µM | > 25 µM | > 25 µM | > 25 µM | 15 ± 7 µM | 25 ± 11 µM | 15 ± 2.1 µM | 14 ± 2.1 µM | 15 ± 4.1 µM | 14 ± 1 µM | > 200 µM | 20.3 ± 4.6 µM | 8.9 ± 2 µM | 14.1 ± 1.4 µM |  |  | IC50 [33]: 18.7 ± 0.8 µM |
| COC(=O)[C@@]1(C)CCC[C@]2(C)c3cc(OC(C)=O)c(C(C)C)cc3CC[C@@H]12 [Compound 10] |  |  | > 15 µM | 3.1 µM | > 25 µM | > 25 µM | > 25 µM | > 25 µM | 6.5 ± 2.7 µM | 18 ± 3.4 µM | 4.5 ± 1.4 µM | 11 ± 2.3 µM | 7 ± 1.7 µM | 4.2 ± 1.5 µM | 30.2 ± 2 µM | 3.6 ± 0.6 µM | 3.9 ± 0.1 µM | 7.4 ± 0.6 µM |  |  |  |
| COC(=O)[C@@]1(C)CCC[C@]2(C)c3cc(OC(C)=O)c(C(C)C)cc3C(=O)C[C@@H]12 [Compound 11] |  |  | 7.1 µM | 5.7 µM | > 25 µM | > 25 µM | > 25 µM | > 25 µM | 3.1 ± 0.9 µM | 17 ± 7.5 µM | 5.2 ± 3.1 µM | 7.4 ± 0.7 µM | 5.6 ± 2.9 µM | 6.1 ± 1.9 µM | 45.8 ± 5.6 µM |  |  |  | 1 ± 3% | 75 ± 4% |  |
| CC(C)c1cc2c(cc1O)C1(C)CCCC(C)(C(=O)O)C1CC2=O (single isomer, unassigned; (+)) [Compound 8a, (+)-4-epi-liquiditerpenoic acid A] | 20.1 ± 2 µM | 21.4 ± 2.3 µM | > 15 µM | > 15 µM | > 25 µM | > 25 µM | > 25 µM | > 25 µM | 12 ± 2.9 µM | 41 ± 17 µM | 33 ± 15 µM | 39 ± 14 µM | 12 ± 3.8 µM | 31 ± 12 µM |  | 100 ± 20 µM | 84.4 ± 31.6 µM | 94.5 ± 6.5 µM | -8 ± 1% | -8 ± 3% | CC50 [35]: > 200 µM; IC50 [33]: 3 ± 0.9 µM |
| COC(=O)[C@@]1(C)CCC[C@]2(C)c3cc(O)c(C(C)C)cc3CC[C@@H]12 [Compound 12] |  |  | 4.7 µM | 2.1 µM | > 25 µM | > 25 µM | > 25 µM | > 25 µM | 2.3 ± 1.5 µM | 12 ± 4.1 µM | 3.7 ± 1.9 µM | 11 ± 3 µM | 5.1 ± 1.9 µM | 4.2 ± 1.3 µM | 65.4 ± 7 µM |  |  |  | 1 ± 3% | 65 ± 6% |  |
| CC(C)c1cc2c(cc1O)[C@@]1(C)CCC[C@](C)(C(=O)O)[C@@H]1CC2 [Compound 13, lambertic acid] | 19.2 ± 3.8 µM | 8.8 ± 1.6 µM | > 15 µM | > 15 µM | > 25 µM | > 25 µM | > 25 µM | > 25 µM | 17 ± 6.1 µM | 32 ± 8.9 µM | 59 ± 7.3 µM | 34 ± 4.2 µM | 29 ± 13 µM | 41 ± 8.4 µM |  | 29.1 ± 1.5 µM | 12.8 ± 2.8 µM | 51.5 ± 3.2 µM | 3 ± 3% | 71 ± 23% | CC50 [36]: 217 ± 34 µM; fold less cytotoxic than 12-hydroxydehydroabietic acid [36]: 2.5 fold; CC50 [35]: > 200 µM; IC50 [33]: 17.8 ± 1.2 µM; IC50 [37]: 12.8 to 51.5 µM |
| CC(C)c1cc2c(cc1O)[C@@]1(C)CCC[C@](C)(CO)[C@@H]1CC2 [Compound 14, 19-hydroxyferruginol] |  |  | > 15 µM | 11.6 µM | > 25 µM | > 25 µM | > 25 µM | > 25 µM | 1.8 ± 0.4 µM | 13 ± 1.3 µM | 13 ± 3.7 µM | 13 ± 1.6 µM | 3.1 ± 0.9 µM | 12 ± 1.8 µM |  |  |  |  | 64 ± 13% | 507% | GI50 [38]: 1.8 to 13 µM; IC50 [39]: 14 µM; CC50 [35]: 51.9 ± 5.9 µM |
| COC(=O)[C@@]1(C)CCC[C@]2(C)c3cc(O)c(C(C)C)cc3C(=O)C[C@@H]12 [Compound 16] | 16.5 ± 4.6 µM | 16.1 ± 2 µM | 4.8 µM | 3.9 µM | > 25 µM | > 25 µM | > 25 µM | > 25 µM | 11 ± 6.9 µM | > 100 µM | 6.1 ± 4.2 µM | 65 ± 4.9 µM | 18 ± 1.7 µM | 47 ± 25 µM |  | 10.1 ± 1.4 µM | 11.8 ± 0.8 µM | 8.5 ± 0.3 µM | 5 ± 4% | 104 ± 26% | CC50 [35]: > 200 µM; IC50 [33]: 5.6 ± 0.6 µM |
